PubChem BioAssay AID296 (DTP/NCI, 2004)
Values joined by “and” are separate entries in the source; they are usually repeats but may differ in a detail not shown here. Equal entries are not always repeated. Results filed as inconclusive are left out.

Test system: MX-1 breast xenograft, nude mice, tumor weight T/C
Test: NCI In Vivo Anticancer Drug Screen. Data for tumor model Human Mammary Carcinoma MX-1 Xenograft (intrarenal inoculation) in NU/NU Swiss (nude) mice
Details: endpoint: mean tumor weight change, higher = larger tumour
Procedure, shortened: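 Antitumour effect measured in vivo against vehicle controls, expressed as T/C.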

[1] = dose: 600.0 mg/kg/injection, schedule: Q04DX003 (sc), vehicle: saline with Tween-80
[2] = dose: 200.0 mg/kg/injection, schedule: Q04DX003 (sc), vehicle: saline with Tween-80
[3] = dose: 400.0 mg/kg/injection, schedule: Q04DX003 (sc), vehicle: saline with Tween-80
[4] = dose: 200.0 mg/kg/injection, schedule: Q04DX003 (sc), vehicle: Klucel (hydroxypropylcellulose) (HPC)
[5] = dose: 400.0 mg/kg/injection, schedule: Q04DX003 (sc), vehicle: Klucel (hydroxypropylcellulose) (HPC)
[6] = dose: 150.0 mg/kg/injection, schedule: Q04DX003 (sc), vehicle: Klucel (hydroxypropylcellulose) (HPC)
[7] = dose: 300.0 mg/kg/injection, schedule: Q04DX003 (sc), vehicle: Klucel (hydroxypropylcellulose) (HPC)
[8] = dose: 600.0 mg/kg/injection, schedule: Q04DX003 (sc), vehicle: Klucel (hydroxypropylcellulose) (HPC)
[9] = dose: 50.0 mg/kg/injection, schedule: Q01DX010 (sc), vehicle: Klucel (hydroxypropylcellulose) (HPC)
[10] = dose: 1200.0 mg/kg/injection, schedule: Q04DX003 (sc), vehicle: Klucel (hydroxypropylcellulose) (HPC)
[11] = dose: 150.0 mg/kg/injection, schedule: Q04DX003 (sc), vehicle: saline with Tween-80
[12] = dose: 300.0 mg/kg/injection, schedule: Q04DX003 (sc), vehicle: saline with Tween-80

## BrC1c2cccc3cccc(c23)C1Br (configuration not stated)
[1]
  T/C: 202 % of control
dose: 2400.0 mg/kg/injection, schedule: Q04DX003 (sc), vehicle: saline with Tween-80
  T/C: 113 % of control

## CC(C)=CCNc1ncnc2c1ncn2C1OC(CO)C(O)C1O (configuration not stated)
dose: 100.0 mg/kg/injection, schedule: Q04DX003 (sc), vehicle: suspension in saline
  T/C: 122 % of control

## C/C=C/C=C1/OC(C)=C(C(C)=O)C1=O
[2]
  T/C: 104 % of control
[3]
  T/C: 85 % of control

## Ic1ncnc2c1ncn2C1CCCO1 (configuration not stated)
dose: 50.0 mg/kg/injection, schedule: Q04DX003 (sc), vehicle: Klucel (hydroxypropylcellulose) (HPC)
  T/C: 84 % of control
[4]
  T/C: 97 % of control
[5]
  T/C: 123 % of control

## CCCCOCN(COCCCC)C(C)Cc1ccccc1 (configuration not stated)
[2]
  T/C: 70 % of control
[3]
  T/C: 52 % of control
dose: 800.0 mg/kg/injection, schedule: Q04DX003 (sc), vehicle: saline with Tween-80
  T/C: 66 % of control

## C=Cc1cnc([N+](=O)[O-])n1C
[6]
  T/C: 72 % of control
[7]
  T/C: 78 % of control
[8]
  T/C: 54 % of control

## Cc1cc(N(CCOS(C)(=O)=O)CCOS(C)(=O)=O)ccc1C=Nc1ccc(-c2nc(Cc3ccccc3)sc2C)cc1
[9]
  T/C: -79 % of control
dose: 100.0 mg/kg/injection, schedule: Q01DX010 (sc), vehicle: Klucel (hydroxypropylcellulose) (HPC)
  T/C: -88 % of control
dose: 200.0 mg/kg/injection, schedule: Q01DX010 (sc), vehicle: Klucel (hydroxypropylcellulose) (HPC)
  T/C: -87 % of control

## CCOC(=O)CNC(=O)Sc1ccc(C(C)(C)C)cc1
[7]
  T/C: 123 % of control
[8]
  T/C: 88 % of control
[10]
  T/C: 81 % of control
dose: 2400.0 mg/kg/injection, schedule: Q04DX003 (sc), vehicle: Klucel (hydroxypropylcellulose) (HPC)
  T/C: 77 % of control

## CCOC(=O)Nc1cc2c(c(N)n1)N=C(CN(C)c1ccccc1)CN2
dose: 25.0 mg/kg/injection, schedule: Q01DX010 (sc), vehicle: Klucel (hydroxypropylcellulose) (HPC)
  T/C: 82 % of control
[9]
  T/C: 70 % of control

## CN(C)c1ccc2c(NCCCCCCNc3ccnc4cc(N(C)C)ccc34)ccnc2c1
dose: 37.5 mg/kg/injection, schedule: Q04DX003 (sc), vehicle: distilled water + Tween-80 + alcohol
  T/C: 72 % of control
dose: 75.0 mg/kg/injection, schedule: Q04DX003 (sc), vehicle: distilled water + Tween-80 + alcohol
  T/C: 63 % of control and 64 % of control
dose: 600.0 mg/kg/injection, schedule: Q04DX003 (sc), vehicle: distilled water + Tween-80 + alcohol
  T/C: 34 % of control and 54 % of control

## CC/C(=C(/CC)c1ccc(O)cc1)c1ccc(O)cc1
dose: 75.0 mg/kg/injection, schedule: Q04DX003 (sc), vehicle: saline with Tween-80
  T/C: 66 % of control
[11]
  T/C: 47 % of control
[12]
  T/C: 48 % of control
[1]
  T/C: 55 % of control

## O=NN(CCCl)C(=O)NC1CCC(=O)NC1=O (configuration not stated)
dose: 1.56 mg/kg/injection, schedule: Q01DX010 (sc), vehicle: saline with Tween-80
  T/C: 100 % of control
dose: 3.13 mg/kg/injection, schedule: Q01DX010 (sc), vehicle: saline with Tween-80
  T/C: 69 % of control and 72 % of control
dose: 6.25 mg/kg/injection, schedule: Q01DX010 (sc), vehicle: saline with Tween-80
  T/C: 2 % of control and 15 % of control and 25 % of control
dose: 12.5 mg/kg/injection, schedule: Q01DX010 (sc), vehicle: saline with Tween-80
  T/C: -87 % of control and -84 % of control

## COc1cc2cc(c1Cl)N(C)C(=O)CC(OC(=O)CC(C)C)C1(C)OC1C(C)C1CC(O)(NC(=O)O1)C(OC)/C=C/C=C(C)C2 (configuration not stated)
dose: 25.0 micrograms/kg/injection, schedule: Q01DX010 (sc), vehicle: saline + alcohol
  T/C: -12 % of control
dose: 100.0 micrograms/kg/injection, schedule: Q01DX010 (sc), vehicle: saline + alcohol
  T/C: -54 % of control

## [Cl][Pt+2][Cl].[NH-]CC1(C[NH-])CCC1
dose: 3.12 mg/kg/injection, schedule: Q04DX003 (sc), vehicle: suspension in saline
  T/C: 48 % of control
dose: 6.25 mg/kg/injection, schedule: Q04DX003 (sc), vehicle: saline
  T/C: 6 % of control
dose: 6.25 mg/kg/injection, schedule: Q04DX003 (sc), vehicle: suspension in saline
  T/C: 19 % of control and 29 % of control
dose: 12.5 mg/kg/injection, schedule: Q04DX003 (sc), vehicle: suspension in saline
  T/C: 6 % of control and 16 % of control
dose: 25.0 mg/kg/injection, schedule: Q04DX003 (sc), vehicle: suspension in saline
  T/C: -74 % of control and -54 % of control

## CC1(C)OCC2OC=CC(=O)C2O1 (configuration not stated)
[11]
  T/C: 79 % of control
[12]
  T/C: 73 % of control
[1]
  T/C: 112 % of control

## N#Cc1c(-c2ccc(F)cc2)c(-c2ccc(F)cc2)nn(CCO)c1=O
dose: 100.0 mg/kg/injection, schedule: Q04DX003 (ip), vehicle: distilled water + Tween-80
  T/C: 101 % of control
dose: 200.0 mg/kg/injection, schedule: Q04DX003 (ip), vehicle: distilled water + Tween-80
  T/C: 80 % of control

## CO[C@H](/C(C)=C/C=C/C(C)=C/c1coc(C)n1)[C@H](C)[C@H]1C[C@@H](O)[C@@]2(C)O[C@H]2/C=C/[C@@H](C)[C@@H]2C[C@@H](CC(=O)O2)C[C@H]2O[C@@H]2C(=O)O1
dose: 0.25 mg/kg/injection, schedule: Q04DX003 (ip), vehicle: Klucel (hydroxypropylcellulose) (HPC)
  T/C: 34 % of control
dose: 0.5 mg/kg/injection, schedule: Q04DX003 (ip), vehicle: Klucel (hydroxypropylcellulose) (HPC)
  T/C: 2 % of control
dose: 1.0 mg/kg/injection, schedule: Q04DX003 (ip), vehicle: Klucel (hydroxypropylcellulose) (HPC)
  T/C: 3 % of control
dose: 2.0 mg/kg/injection, schedule: Q04DX003 (ip), vehicle: Klucel (hydroxypropylcellulose) (HPC)
  T/C: -26 % of control

## O=c1oc2c(O)c(O)cc3c(=O)oc4c(O)c(O)cc1c4c23
[6]
  T/C: 115 % of control
[7]
  T/C: 109 % of control
[8]
  T/C: 67 % of control
[10]
  T/C: 101 % of control

## CCCCCNc1ncnc2c(C)[nH]nc12
dose: 75.0 mg/kg/injection, schedule: Q04DX003 (ip), vehicle: Klucel (hydroxypropylcellulose) (HPC)
  T/C: 80 % of control
dose: 150.0 mg/kg/injection, schedule: Q04DX003 (ip), vehicle: Klucel (hydroxypropylcellulose) (HPC)
  T/C: 112 % of control

## COc1c(CNC(=O)CCl)cc2[nH]c(C)cc2c1CNC(=O)CCl
dose: 250.0 mg/kg/injection, schedule: Q04DX003 (sc), vehicle: Klucel (hydroxypropylcellulose) (HPC)
  T/C: 100 % of control
dose: 1000.0 mg/kg/injection, schedule: Q04DX003 (sc), vehicle: Klucel (hydroxypropylcellulose) (HPC)
  T/C: 55 % of control
dose: 2000.0 mg/kg/injection, schedule: Q04DX003 (sc), vehicle: Klucel (hydroxypropylcellulose) (HPC)
  T/C: 58 % of control

## NCCCC(N)(C(=O)O)C(F)F (configuration not stated)
dose: 300.0 mg/kg/injection, schedule: Q04DX003 (sc), vehicle: distilled water + alcohol
  T/C: 110 % of control
dose: 600.0 mg/kg/injection, schedule: Q04DX003 (sc), vehicle: distilled water + alcohol
  T/C: 83 % of control
dose: 1200.0 mg/kg/injection, schedule: Q04DX003 (sc), vehicle: distilled water + alcohol
  T/C: 73 % of control
dose: 2400.0 mg/kg/injection, schedule: Q04DX003 (sc), vehicle: distilled water + alcohol
  T/C: 112 % of control

## O=C(O)C1(NO)CCCCC1
[4]
  T/C: 110 % of control
[5]
  T/C: 100 % of control
dose: 800.0 mg/kg/injection, schedule: Q04DX003 (sc), vehicle: Klucel (hydroxypropylcellulose) (HPC)
  T/C: 123 % of control
dose: 1600.0 mg/kg/injection, schedule: Q04DX003 (sc), vehicle: Klucel (hydroxypropylcellulose) (HPC)
  T/C: 64 % of control

## O=C1c2ccccc2C(=O)c2c3c(cc(NCCNCCO)c21)N(CCO)CCN3
dose: 12.5 mg/kg/injection, schedule: Q04DX003 (sc), vehicle: DMSO
  T/C: 95 % of control
dose: 25.0 mg/kg/injection, schedule: Q04DX003 (sc), vehicle: DMSO
  T/C: 101 % of control
dose: 50.0 mg/kg/injection, schedule: Q04DX003 (sc), vehicle: DMSO
  T/C: 77 % of control
dose: 100.0 mg/kg/injection, schedule: Q04DX003 (sc), vehicle: DMSO
  T/C: 111 % of control
dose: 200.0 mg/kg/injection, schedule: Q04DX003 (sc), vehicle: DMSO
  T/C: 151 % of control

## O=C(C1CO1)C(Cl)(Cl)Cl (configuration not stated)
dose: 150.0 mg/kg/injection, schedule: Q04DX003 (sc), vehicle: saline
  T/C: 64 % of control

## O=CN(SSN(C=O)C1CCCCC1)C1CCCCC1
dose: 50.0 mg/kg/injection, schedule: Q01DX010 (sc), vehicle: saline with Tween-80
  T/C: 69 % of control
dose: 100.0 mg/kg/injection, schedule: Q01DX010 (sc), vehicle: saline with Tween-80
  T/C: 83 % of control
dose: 200.0 mg/kg/injection, schedule: Q01DX010 (sc), vehicle: saline with Tween-80
  T/C: 53 % of control
dose: 400.0 mg/kg/injection, schedule: Q01DX010 (sc), vehicle: saline with Tween-80
  T/C: 34 % of control
